Results on 15 molecules are retold here after ChEMBL document CHEMBL4819062, “Novel iodinated quinazolinones bearing sulfonamide as new scaffold targeting radiation induced oxidative stress” (Bioorg Med Chem Lett, 2021).

The term IC50 denotes the concentration that inhibits the measured activity by half.

Assay [1] has as its target T1, Nuclear factor erythroid 2-related factor 2 (Mus musculus) (UniProt Q60795).
T1 sequence (whole entry): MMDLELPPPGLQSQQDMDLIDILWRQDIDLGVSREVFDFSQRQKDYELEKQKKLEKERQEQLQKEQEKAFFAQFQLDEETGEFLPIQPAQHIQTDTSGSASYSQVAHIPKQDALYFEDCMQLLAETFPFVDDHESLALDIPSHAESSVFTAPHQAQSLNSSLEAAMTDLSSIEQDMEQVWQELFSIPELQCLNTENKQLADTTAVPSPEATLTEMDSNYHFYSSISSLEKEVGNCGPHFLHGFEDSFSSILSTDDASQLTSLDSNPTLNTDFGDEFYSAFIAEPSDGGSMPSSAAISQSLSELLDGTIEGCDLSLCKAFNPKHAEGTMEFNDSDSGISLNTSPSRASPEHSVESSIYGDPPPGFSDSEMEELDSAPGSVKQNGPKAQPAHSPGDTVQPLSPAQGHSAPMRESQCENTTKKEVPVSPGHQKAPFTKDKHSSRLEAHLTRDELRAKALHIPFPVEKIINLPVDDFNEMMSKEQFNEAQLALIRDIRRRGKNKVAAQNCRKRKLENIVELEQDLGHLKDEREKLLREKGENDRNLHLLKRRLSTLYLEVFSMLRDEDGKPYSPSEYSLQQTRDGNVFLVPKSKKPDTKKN
In words: Activation of Nrf2 in mouse Hepa1c1c7 cells assessed as increase in NQO1 activity at 2.5 uM. Format: cell-based. To be noted: filed as activator.

For assay [2], the target named is T1, Nuclear factor erythroid 2-related factor 2 (Mus musculus). In words: Activation of Nrf2 in mouse Hepa1c1c7 cells assessed as increase in NQO1 activity at 20 uM. The assay is classed as cell-based. To be noted: filed as activator.
The target is the same in assay [3]. In words: Activation of Nrf2 in mouse Hepa1c1c7 cells assessed as increase in NQO1 activity at 5 uM. The assay is classed as cell-based. To be noted: filed as activator.
Assay [4] shares this target. In words: Activation of Nrf2 in mouse Hepa1c1c7 cells assessed as increase in NQO1 activity at 0.625 uM. Format: cell-based. The note with it: filed as activator.
Assay [5] can be described thus: Antioxidant activity assessed as DPPH radical scavenging activity. Format: functional.
For assay [6], the target named is T1, Nuclear factor erythroid 2-related factor 2 (Mus musculus). In words: Activation of Nrf2 in mouse Hepa1c1c7 cells assessed as increase in NQO1 activity at 0.313 uM. Format: cell-based. To be noted: filed as activator.
Assay [7] has the same target. In words: Activation of Nrf2 in mouse Hepa1c1c7 cells assessed as increase in NQO1 activity at 1.25 uM. The assay is classed as cell-based. To be noted: filed as activator.
For assay [8] the target is unchanged. In words: Activation of Nrf2 in mouse Hepa1c1c7 cells assessed as increase in NQO1 activity at 40 uM. The assay is classed as cell-based. To be noted: filed as activator.
For assay [9] the target is unchanged. In words: Activation of Nrf2 in mouse Hepa1c1c7 cells assessed as increase in NQO1 activity at 10 uM. Format: cell-based. To be noted: filed as activator.
For assay [10] the target is unchanged. In words: Activation of Nrf2 in mouse Hepa1c1c7 cells assessed as increase in NQO1 activity at 6.25 uM. Format: cell-based. The note with it: filed as activator.
For assay [11] the target is unchanged. In words: Activation of Nrf2 in mouse Hepa1c1c7 cells assessed as increase in NQO1 activity at 25 uM. Format: cell-based. To be noted: filed as activator.
For assay [12] the target is unchanged. In words: Activation of Nrf2 in mouse Hepa1c1c7 cells assessed as increase in NQO1 activity at 0.4 uM. The assay is classed as cell-based. To be noted: filed as activator.
Assay [13] shares this target. In words: Activation of Nrf2 in mouse Hepa1c1c7 cells assessed as increase in NQO1 activity at 1.6 uM. Format: cell-based. The note with it: filed as activator.
The target is the same in assay [14]. In words: Activation of Nrf2 in mouse Hepa1c1c7 cells assessed as increase in NQO1 activity at 3.125 uM. Format: cell-based. To be noted: filed as activator.
The target is the same in assay [15]. In words: Activation of Nrf2 in mouse Hepa1c1c7 cells assessed as increase in NQO1 activity at 50 uM. Format: cell-based. To be noted: filed as activator.
Assay [16] has the same target. In words: Activation of Nrf2 in mouse Hepa1c1c7 cells assessed as increase in NQO1 activity at 0.8 uM. The assay is classed as cell-based. To be noted: filed as activator.
Assay [17] shares this target. In words: Activation of Nrf2 in mouse Hepa1c1c7 cells assessed as increase in NQO1 activity at 12.5 uM. Format: cell-based. To be noted: filed as activator.
For assay [18] the target is unchanged. In words: Activation of Nrf2 in mouse Hepa1c1c7 cells assessed as increase in NQO1 activity at 0.9 uM. Format: cell-based. The note with it: filed as activator.
The target is the same in assay [19]. In words: Activation of Nrf2 in mouse Hepa1c1c7 cells assessed as increase in NQO1 activity at 0.5 uM. The assay is classed as cell-based. The note with it: filed as activator.
The target is the same in assay [20]. In words: Activation of Nrf2 in mouse Hepa1c1c7 cells assessed as increase in NQO1 activity at 1.9 uM. Format: cell-based. The note with it: filed as activator.
Assay [21] shares this target. In words: Activation of Nrf2 in mouse Hepa1c1c7 cells assessed as increase in NQO1 activity at 30 uM. The assay is classed as cell-based. To be noted: filed as activator.
Assay [22] shares this target. In words: Activation of Nrf2 in mouse Hepa1c1c7 cells assessed as increase in NQO1 activity at 3.75 uM. Format: cell-based. The note with it: filed as activator.
Assay [23] has the same target. In words: Activation of Nrf2 in mouse Hepa1c1c7 cells assessed as increase in NQO1 activity at 15 uM. To be noted: filed as activator. The assay is classed as cell-based.
For assay [24] the target is unchanged. In words: Activation of Nrf2 in mouse Hepa1c1c7 cells assessed as increase in NQO1 activity at 7.5 uM. The assay is classed as cell-based. The note with it: filed as activator.
Assay [25] shares this target. In words: Activation of Nrf2 in mouse Hepa1c1c7 cells assessed as increase in NQO1 activity at 0.2 uM. Format: cell-based. The note with it: filed as activator.
For assay [26] the target is unchanged. In words: Activation of Nrf2 in mouse Hepa1c1c7 cells assessed as concentration required to double induction to increase in NQO1 activity. Format: cell-based. The note with it: filed as activator.

Regarding `NS(=O)(=O)c1ccc(-n2c(SCC(=O)Nc3ccc(Cl)cc3)nc3c(I)cc(I)cc3c2=O)cc1`, the Activity in assay [1] came to 1.04; in assay [2] it was 1.26; in assay [3], 1.19; in assay [4] it was 1.04; in assay [6] it was 1.06; in assay [7], 1.03. The Activity in assay [8] and in [9] was 1.26 throughout. Also, the IC50 in assay [5] amounted to 56.5 µM.
Regarding `NS(=O)(=O)c1ccc(-n2c(SCC(=O)Nc3ccncc3)nc3c(I)cc(I)cc3c2=O)cc1`, the Activity is 1.15 in [10]; 1.65 in assay [11]; 1.04 in [12]; 1.02 in [13]; 1.06 in [14]; 1.89 in assay [15]. Moreover, the values for the Activity in [16] and in [17] were 1 and 1.31, respectively. Moreover, in assay [5], the IC50 was found to be 112 µM.
As to `NS(=O)(=O)c1ccc(-n2c(SCC(=O)Nc3ccc(I)cc3)nc3c(I)cc(I)cc3c2=O)cc1`, the Activity in assay [1] amounted to 1.04; in [2], 1.07; in assay [3], 1.05; in assay [4], 1.02; in assay [6], 1.02; in assay [7], 1.03. Further, the Activity was 1.12 in assay [8] and 1.04 in assay [9]. In [5], the IC50 turned out to be 55.6 µM.
On to `NS(=O)(=O)c1ccc(-n2c(SCC(=O)Nc3ccc(Br)cc3Br)nc3c(I)cc(I)cc3c2=O)cc1`, for which the Activity stood at 1 in [18]; 1 in assay [19]; 1.02 in [20]; 1.17 in [21]; 1.09 in assay [22]; 1.13 in assay [23]. Also, the Activity in [24] was 1.08; in assay [25], 1.01. Further, the IC50 in assay [5] was 37.8 µM.
In the case of `NS(=O)(=O)c1ccc(-n2c(SCC(=O)Nc3ccccc3F)nc3c(I)cc(I)cc3c2=O)cc1`, the Activity was 1.11 in [18]; 1.06 in assay [19]; 1.12 in assay [20]; 1.13 in assay [22]; 1.8 in assay [23]; 1.23 in [24]. In addition, in assay [25], the Activity was 1.05. In addition, the IC50 in assay [5] was 98.9 µM.
As for `O=C1O[C@H]([C@@H](O)CO)C(O)=C1O` [ASCORBIC ACID], in assay [5], the IC50 was determined as 128 µM.
For the molecule `NS(=O)(=O)c1ccc(-n2c(SCC(=O)Nc3ccccn3)nc3c(I)cc(I)cc3c2=O)cc1`, the Activity in assay [1] stood at 0.76; in assay [3], 0.51; in assay [4], 0.94; in assay [6], 0.96; in assay [7] it was 0.83. In addition, the IC50 in [5] amounted to 85 µM.
For the molecule `NS(=O)(=O)c1ccc(-n2c(SCC(=O)Nc3ccc(Br)cc3)nc3c(I)cc(I)cc3c2=O)cc1`, the Activity stood at 0.94 in assay [1]; 1.42 in assay [2]; 1.02 in [3]; 1.01 in [4]; 1.02 in [6]; 0.99 in assay [7]. Further, the Activity entry is “Dose-Dependent Effect” in [26], 1.93 in assay [8] and 1.15 in [9]. In assay [5], the IC50 was 49.3 µM. Besides, in assay [26], the CD turned out to be 40 µM.
With `NS(=O)(=O)c1ccc(-n2c(SCC(=O)Nc3ccc(Cl)cn3)nc3c(I)cc(I)cc3c2=O)cc1`, the Activity amounted to 1.5 in assay [10]; 0.94 in assay [12]; 0.98 in [13]; 1.09 in assay [14]; 0.99 in [16]; 1.7 in assay [17]. In addition, the IC50 in [5] is 30.5 µM.
With `NS(=O)(=O)c1ccc(-n2c(SCC(=O)Nc3cccc(F)c3)nc3c(I)cc(I)cc3c2=O)cc1`, the Activity in assay [18] was 1.07; in assay [19], 1.04; in assay [20] it was 1.06; in assay [21] it was 1.47; in assay [22] it was 1.1; in assay [23], 1.31. Moreover, the Activity was found to be 1.21 in assay [24] and 1.01 in [25]. The 50% inhibitory concentration (IC50) in [5] is 59.4 µM.
In the case of `NS(=O)(=O)c1ccc(-n2c(SCC(=O)Nc3c(Cl)cc(Cl)cc3Cl)nc3c(I)cc(I)cc3c2=O)cc1`, the Activity in assay [18] is 1.06; in assay [19], 1.02; in [20] it was 1.04; in [21], 1.02; in assay [22] it was 1.02; in assay [23], 1. The Activity in assay [24] and in [25] was 1 in each case. In addition, in [5], the IC50 was determined as 161 µM.
Regarding `NS(=O)(=O)c1ccc(-n2c(SCC(=O)Nc3cc(Cl)c(Cl)cc3Cl)nc3c(I)cc(I)cc3c2=O)cc1`, the Activity came out at 1.07 in assay [1]; 1.25 in [2]; 1.08 in [3]; 1.03 in assay [4]; 1.01 in assay [6]; 1.05 in [7]. Further, the Activity in assay [8] came to 1.3; in assay [9], 1.1. In addition, the IC50 in [5] was 59.8 µM.
For the molecule `NS(=O)(=O)c1ccc(-n2c(SCC(=O)Nc3cccnc3)nc3c(I)cc(I)cc3c2=O)cc1`, the Activity amounted to 1 in assay [18]; 0.99 in assay [19]; 0.99 in assay [20]; 1.35 in assay [21]; 1.03 in assay [22]; 1.19 in [23]. The Activity was determined as 1.07 in assay [24] and 1 in assay [25]. The IC50 in assay [5] came out at 165 µM.
Turning to `NS(=O)(=O)c1ccc(-n2c(S)nc3c(I)cc(I)cc3c2=O)cc1`, in assay [5], the IC50 is 57.1 µM.
On to `NS(=O)(=O)c1ccc(-n2c(SCC(=O)Nc3ccc(F)cc3)nc3c(I)cc(I)cc3c2=O)cc1`, for which the Activity in [10] came to 1; in assay [11], 1.13; in assay [12], 0.98; in assay [13], 0.99; in assay [14], 0.99; in assay [15], 1.19. Moreover, the Activity in assay [16] was 1; in [17] it was 1.06. Moreover, the IC50 in [5] was 158 µM.
